In the supplement of paper PMC10307832:

Legend:
Experiment in all cases: relative viability (nuclei count vs DMSO), 5 days (fraction); higher = more cells survive
[1] = compound: C/C(=N\NC(=S)N1CCC1)/C2=CC=CC=N2 + Nc1ncn([C@H]2C[C@H](O)[C@@H](CO)O2)c(=O)n1 [Decitabine] (partner 2 µM)
In short: (§1)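 Lung cancer cell lines, seeded in 1536-well plates, were treated the following day by pin tool with a single drug or with five library-drug doses (not always all listed) in √10 steps on top of a fixed anchor-drug dose. Cells were fixed and nuclei stained in one step after 5 days, and nuclei were counted. Relative viability is the nuclei count for treated wells divided by that for vehicle wells, reported as medians of duplicate plates.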

[2] = compound: C/C(=N\NC(=S)N1CCC1)/C2=CC=CC=N2 + O=C(c1cc(Cc2n[nH]c(=O)c3ccccc23)ccc1F)N1CCN(C(=O)C2CC2)CC1 [Olaparib] (partner 8 µM)
In short: as §1

[3] = compound: C/C(=N\NC(=S)N1CCC1)/C2=CC=CC=N2 + CS(=O)(=O)CCNCc1ccc(-c2ccc3ncnc(Nc4ccc(OCc5cccc(F)c5)c(Cl)c4)c3c2)o1 [Lapatinib] (partner 2 µM)
In short: as §1

[4] = compound: C/C(=N\NC(=S)N1CCC1)/C2=CC=CC=N2 + NC(=O)Nc1cc(-c2cccc(F)c2)sc1C(=O)N[C@H]1CCCNC1 [AZD7762] (partner 0.2 µM)
In short: as §1

Row | Cell Line | relative viability ([1]; first compound 0.05 µM) | relative viability ([1]; first compound 0.1581 µM) | relative viability ([1]; first compound 0.5 µM) | relative viability ([1]; first compound 1.581 µM) | relative viability ([1]; first compound 5 µM) | relative viability ([2]; first compound 0.05 µM) | relative viability ([2]; first compound 0.1581 µM) | relative viability ([2]; first compound 0.5 µM) | relative viability ([2]; first compound 1.581 µM) | relative viability ([2]; first compound 5 µM) | relative viability ([3]; first compound 0.05 µM) | relative viability ([3]; first compound 0.1581 µM) | relative viability ([3]; first compound 0.5 µM) | relative viability ([3]; first compound 1.581 µM) | relative viability ([3]; first compound 5 µM) | relative viability ([4]; first compound 0.05 µM) | relative viability ([4]; first compound 0.1581 µM) | relative viability ([4]; first compound 0.5 µM) | relative viability ([4]; first compound 1.581 µM) | relative viability ([4]; first compound 5 µM)
1 | LCLC-97TM1 | 0.0771 | 0.284 | 0.0691 | 0.0739 | 0.0762 | 0.0715 | 0.422 | 0.0519 | 0.0494 | 0.0514 | 0.0934 | 0.101 | 0.0997 | 0.0662 | 0.107 | 0.0761 | 0.0694 | 0.0641 | 0.0548 | 0.0577
2 | LK-2 | 0.0805 | 0.111 | 0.0805 | 0.0894 | 0.0937 | 0.076 | 0.14 | 0.104 | 0.0854 | 0.0916 | 0.171 | 0.25 | 0.201 | 0.144 | 0.199 | 0.0945 | 0.0875 | 0.049 | 0.086 | 0.0796
3 | LOU-NH91 | 0.625 | 0.626 | 0.579 | 0.462 | 0.495 | 0.482 | 0.562 | 0.458 | 0.44 | 0.451 | 0.399 | 0.434 | 0.487 | 0.383 | 0.357 | 0.46 | 0.548 | 0.479 | 0.294 | 0.428
4 | LU99A | 0.222 | 0.624 | 0.171 | 0.162 | 0.173 | 0.168 | 0.207 | 0.124 | 0.102 | 0.128 | 0.153 | 0.132 | 0.136 | 0.128 | 0.172 | 0.153 | 0.12 | 0.125 | 0.107 | 0.14
5 | LXF-289 | 0.274 | 0.356 | 0.198 | 0.236 | 0.158 | 0.382 | 0.647 | 0.175 | 0.176 | 0.0913 | 0.322 | 0.278 | 0.275 | 0.24 | 0.14 | 0.212 | 0.266 | 0.218 | 0.124 | 0.116
6 | NCI-H23 | 0.178 | 0.2 | 0.161 | 0.172 | 0.202 | 0.129 | 0.101 | 0.0966 | 0.0889 | 0.111 | 0.169 | 0.168 | 0.171 | 0.151 | 0.166 | 0.0952 | 0.131 | 0.124 | 0.096 | 0.131
7 | NCI-H322M | 0.353 | 0.413 | 0.418 | 0.47 | 0.455 | 0.334 | 0.334 | 0.398 | 0.398 | 0.467 | 0.258 | 0.281 | 0.222 | 0.243 | 0.301 | 0.316 | 0.333 | 0.381 | 0.37 | 0.414
8 | NCI-H358 | 0.114 | 0.12 | 0.0978 | 0.0977 | 0.0971 | 0.0853 | 0.0833 | 0.0714 | 0.0722 | 0.067 | 0.233 | 0.247 | 0.244 | 0.193 | 0.199 | 0.174 | 0.217 | 0.16 | 0.15 | 0.18
9 | NCI-H460 | 0.0547 | 0.04 | 0.0328 | 0.0221 | 0.0138 | 0.0648 | 0.0442 | 0.0577 | 0.0429 | 0.0274 | 0.0117 | 0.0152 | 0.017 | 0.015 | 0.0086 | 0.0608 | 0.0607 | 0.0479 | 0.0377 | 0.0347
10 | NCI-H596 | 0.887 | 0.408 | 0.335 | 0.317 | 0.418 | 0.616 | 0.391 | 0.347 | 0.31 | 0.292 | 0.339 | 0.293 | 0.221 | 0.228 | 0.299 | 0.331 | 0.321 | 0.312 | 0.244 | 0.297
11 | NCI-H647 | 0.0887 | 0.123 | 0.117 | 0.0803 | 0.0922 | 0.0792 | 0.0588 | 0.0743 | 0.0667 | 0.0631 | 0.139 | 0.0972 | 0.11 | 0.0821 | 0.0828 | 0.0396 | 0.0606 | 0.048 | 0.0361 | 0.0379
12 | NCI-H650 | 0.169 | 0.192 | 0.187 | 0.186 | 0.157 | 0.135 | 0.151 | 0.147 | 0.114 | 0.138 | 0.174 | 0.294 | 0.23 | 0.168 | 0.203 | 0.225 | 0.209 | 0.199 | 0.223 | 0.143
13 | NCI-H727 | 0.406 | 0.366 | 0.394 | 0.398 | 0.466 | 0.437 | 0.273 | 0.295 | 0.347 | 0.4 | 0.194 | 0.222 | 0.25 | 0.232 | 0.267 | 0.265 | 0.249 | 0.311 | 0.228 | 0.312
14 | NCI-H838 | 0.258 | 0.261 | 0.265 | 0.192 | 0.2 | 0.184 | 0.173 | 0.186 | 0.159 | 0.13 | 0.185 | 0.186 | 0.212 | 0.149 | 0.164 | 0.579 | 0.684 | 0.653 | 0.616 | 0.637
15 | NCI-H1355 | 0.206 | 0.207 | 0.189 | 0.172 | 0.157 | 0.22 | 0.179 | 0.171 | 0.175 | 0.142 | 0.203 | 0.238 | 0.205 | 0.167 | 0.18 | 0.168 | 0.17 | 0.135 | 0.146 | 0.155
16 | NCI-H1395 | 0.331 | 0.36 | 0.357 | 0.354 | 0.377 | 0.321 | 0.285 | 0.373 | 0.364 | 0.39 | 0.314 | 0.424 | 0.355 | 0.315 | 0.412 | 0.287 | 0.326 | 0.402 | 0.35 | 0.406
